Reference: paper PMC5104457, “ATP-Competitive MLKL Binders Have No Functional Impact on Necroptosis” (PLoS ONE, 2016)

What was measured:
N-terminal domain HSP90α = biological target: T1, N-terminal domain HSP90α (Homo sapiens, UniProt P07900); assay: Differential scanning fluorimetry (thermal shift), Hsp90α N-terminal domain; format: binding; conditions: 10 μM compound, Hsp90α catalytic domain
T1 construct: the N-terminal domain HSP90α; made in house
Experimental: To measure the thermal stabilization of the proteins upon compound binding we employed differential scanning fluorimetry (DSF). The kinase domain of RIPK1 and the N-terminal domain HSP90α were expressed and purified as previously described. The pseudokinase MLKL-1, RIPK1 and Hsp90 were melted at 1μM final concentrations in 25mM HEPES pH 8.0, 250mM NaCl and 2.5mM DTT. Compounds were added to a final concentration of 10 μ M with a final DMSO concentration of 5%. The complexes were incubated on ice for 30 minutes. Protein Thermal Shift dye (Life Technologies) was added to 1X. The fluorescence intensities were measured using a Quantstudio real-time PCR system (Life Technologies) with excitation at 470 nm and emission at 586 nm. The samples, measured in triplicate, were heated from 25 to 85°C with a heating rate of […].

FADD (-/-) Jurkat cells = assay: Viability experiment in the absence of TNF; format: cell-based; conditions: FADD deficient Jurkat cells, Fig 3A
Experimental: Necroptosis assays were performed at Charles River Laboratories (United Kingdom) and at Biogen. […] On the day of the experiment, cells were counted using Nexcelom Bioscience Cell Meter Vision and pelleted by centrifugation. Cell pellets were resuspended in fresh medium at 500,000 cells per mL and transferred to assay-ready compound plates prepared in 384-well white TC plates (Greiner #781080) at 20μl cells per well. Cells and compound were incubated at room temperature for 30 minutes followed by +/- stimulation with 15ng/ml TNF-α (Cell signalling Technologies #8902LF) overnight at 37°C. In the morning, plates were equilibrated to room temperature for 30 minutes and 25μl of CellTiter-Glow (CellTiter-Glo 2.0 Assay, Promega # G9243) diluted 1:4 in PBS was added to each well and allowed to incubate for 10 minutes at room temperature. Luminescence was read on an Envision plate reader (Perkin Elmer). Percent viability values are calculated from separate dose response experiments identical to the percent rescue experiment except that no TNF is added to the cells. This assay is intended to identify compounds that not only don’t rescue, but are toxic themselves. 100% Viability is defined as the intensity value of the “no TNF” wells, cell treated with neither compound nor TNF. […]

full length MLKL = biological target: T2, full length MLKL (Homo sapiens, UniProt Q8NB16); assay: KINOMEscan ATP-competitive probe displacement (competition binding) assay, MLKL; conditions: average of duplicates
T2 construct: purchased DiscoverX (KINOMEscan service); host or cells: HEK-293
T2 sequence (Q8NB16 1-471): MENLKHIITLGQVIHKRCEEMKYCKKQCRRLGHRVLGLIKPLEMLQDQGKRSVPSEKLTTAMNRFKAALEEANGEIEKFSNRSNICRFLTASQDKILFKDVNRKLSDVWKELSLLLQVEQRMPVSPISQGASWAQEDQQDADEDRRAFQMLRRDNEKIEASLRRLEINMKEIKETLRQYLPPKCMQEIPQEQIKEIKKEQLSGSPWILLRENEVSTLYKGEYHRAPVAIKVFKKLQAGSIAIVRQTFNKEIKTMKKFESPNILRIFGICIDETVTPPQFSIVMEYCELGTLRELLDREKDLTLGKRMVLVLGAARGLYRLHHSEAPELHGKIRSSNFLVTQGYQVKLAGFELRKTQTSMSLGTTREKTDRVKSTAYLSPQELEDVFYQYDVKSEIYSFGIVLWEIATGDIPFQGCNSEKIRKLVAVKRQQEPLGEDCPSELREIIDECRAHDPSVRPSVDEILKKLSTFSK
Experimental: Compound binding constants (KDs) were determined at DiscoverX using their KINOMEscan assay platform. […] Briefly, full length MLKL was expressed in HEK-293 cells as a fusion with an NFκB DNA binding domain and subsequently tagged with a qPCR detection amplicon via interaction with NFκB. […] Twenty microliters of binding reactions were carried out in 384-well polypropylene plates for 1 hour at room temperature. Beads were subsequently washed and resuspended in elution buffer for 30 minutes at room temperature with shaking. The concentration of MLKL in the eluates was measured by qPCR and compound binding constants were calculated using a standard dose-response curve.
(§1) A similar approach was used to measure binding affinities for RIPK1 and RIPK3 kinase domains.

RIPK1 kinase domain = biological target: T3, RIPK1 kinase domain (Homo sapiens, UniProt Q13546); assay: ATP-competitive probe displacement assay, RIPK1; format: binding; conditions: average of duplicates
T3 construct: purchased DiscoverX
T3 sequence (Q13546 17-289 limits assumed): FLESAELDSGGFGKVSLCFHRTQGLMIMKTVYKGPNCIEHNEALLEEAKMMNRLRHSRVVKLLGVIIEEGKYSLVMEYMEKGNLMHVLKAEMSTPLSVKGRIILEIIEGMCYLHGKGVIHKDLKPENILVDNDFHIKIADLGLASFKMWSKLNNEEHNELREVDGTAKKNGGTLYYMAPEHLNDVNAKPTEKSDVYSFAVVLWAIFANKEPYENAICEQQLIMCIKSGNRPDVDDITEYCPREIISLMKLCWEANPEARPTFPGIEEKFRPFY
Experimental: (§2) Compound binding constants (KDs) were determined at DiscoverX using their KINOMEscan assay platform. This competition binding assay was previously described in Karaman et al. (2008)[18]. Briefly, full length MLKL was expressed in HEK-293 cells as a fusion with an NFκB DNA binding domain and subsequently tagged with a qPCR detection amplicon via interaction with NFκB. […] Twenty microliters of binding reactions were carried out in 384-well polypropylene plates for 1 hour at room temperature. Beads were subsequently washed and resuspended in elution buffer for 30 minutes at room temperature with shaking. The concentration of MLKL in the eluates was measured by qPCR and compound binding constants were calculated using a standard dose-response curve.
as §1

RIPK3 kinase domain = biological target: T4, RIPK3 kinase domain (Homo sapiens, UniProt Q9Y572); assay: ATP-competitive probe displacement assay, RIPK3; format: binding
T4 construct: purchased DiscoverX
Experimental: as §2, §1

T4 sequence (Q9Y572 21-287 limits assumed): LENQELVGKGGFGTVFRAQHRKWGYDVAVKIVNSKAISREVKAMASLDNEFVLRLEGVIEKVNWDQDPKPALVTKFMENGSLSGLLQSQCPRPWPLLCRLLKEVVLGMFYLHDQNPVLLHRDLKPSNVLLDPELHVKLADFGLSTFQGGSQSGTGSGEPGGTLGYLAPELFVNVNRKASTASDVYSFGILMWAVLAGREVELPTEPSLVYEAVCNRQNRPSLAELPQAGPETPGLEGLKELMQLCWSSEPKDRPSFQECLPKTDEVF

| SMILES | ΔTm at 10 µM (N-terminal domain HSP90α) [°C] | compound concentration at which cell viability became an issue (FADD (-/-) Jurkat cells) [µM] | Kd (full length MLKL) [nM] | Kd (RIPK1 kinase domain) [µM] | displacement of the ATP probe from / binding to RIPK3 (in words) (RIPK3 kinase domain) | Kd (RIPK3 kinase domain; average of duplicates) [µM] |
| --- | --- | --- | --- | --- | --- | --- |
| CN(c1ccc(NC(=O)Nc2ccc(OC(F)(F)F)cc2)cc1)c1ccnc(Nc2cccc(S(N)(=O)=O)c2)n1 [cpd 1, reference compound] | 1.5 | > 2 |  |  |  |  |
| Nc1nccnc1C(=O)O[C@@H](C(=O)Nc1ccc(F)cc1)c1ccccc1 [cpd 4, 3-Amino-pyrazine-2-carboxylic acid (R)-(4-fluorophenylcarbamoyl)-phenyl-methyl ester] |  |  | 230 | > 30 | without binding RIPK1 or RIPK3 | > 30 |
